Results as given in paper PMC10572522, “A Designed Analog of an Antimicrobial Peptide, Crabrolin, Exhibits Enhanced Anti-Proliferative and In Vivo Antimicrobial Activity” (International Journal of Molecular Sciences, 2023).
Residues, ends and D or L forms follow the SMILES beside them.

Columns and labels:
S. aureus (NCTC 10788) = test: Antimicrobial susceptibility assay (MIC/MBC); format: cell-based, Staphylococcus aureus; settings: for MIC: MHB, 37 °C, 20 h
Procedure: (§1) Six bacteria were tested in this experiment to detect the antimicrobial effects of crabrolin and its derivatives, including S. aureus (NCTC 10788), MRSA (NCTC 12493), E. coli (ATCC 8739), K. pneumoniae (ATCC 43816), E. faecium (NTCC-12697), and P. aeruginosa (ATCC 9027). The tested bacteria were cultured in Mueller Hinton broth medium (MHB) with norfloxacin (20 mg/L) as a positive control. All bacteria were incubated at 37 °C overnight and diluted to 5 × 10^5 CFU/mL before treating with the peptides. Stock solutions of 51,200 µM peptides were prepared in phosphate-buffered saline (PBS) and further diluted by a factor of two to 100 µM. Next, 1 µL of each peptide solution was mixed with 99 µL of bacterial subculture in a 96-well plate, and the plate was incubated at 37 °C for 20 h. After culturing, the absorbance of each well in the 96-well plate was analyzed at 550 nm using a Synergy HT plate reader (BioliseBioTek, Winooski, VT, USA). […] Starting with the MIC value, 10 µL of the solution from each well was dripped onto Mueller Hinton agar (MHA) plates. The plates were cultured at 37 °C for 20 h. After culturing, the lowest concentration with no colony growth was regarded as the MBC.

E. coli (ATCC 8739) = test: Antimicrobial susceptibility assay (MIC/MBC); format: cell-based, Escherichia coli; settings: for MIC: MHB, 37 °C, 20 h
Procedure: as §1

MRSA (NCTC 12493) = test: Antimicrobial susceptibility assay (MIC/MBC); format: cell-based, methicillin-resistant Staphylococcus aureus; settings: for MIC: MHB, 37 °C, 20 h
Procedure: as §1

[1] = test system: K. pneumoniae (ATCC 43816); test: Antimicrobial susceptibility assay (MIC/MBC); format: cell-based, Klebsiella pneumoniae; settings: for MIC: MHB, 37 °C, 20 h
Procedure: as §1

E. faecium (NTCC 12697) = test: Antimicrobial susceptibility assay (MIC/MBC); format: cell-based, Enterococcus faecium; settings: for MIC: MHB, 37 °C, 20 h
Procedure: as §1

[2] = test system: K. pneumoniae (ATCC 43816) biofilm; format: cell-based, Klebsiella pneumoniae; settings: for MBIC: biofilm inhibitory rate more than 90%; for MBEC: eradication rate greater than 99.9%
Procedure: (§2) To measure the antibiofilm activity of crabrolin and its derivatives, four drug-resistant biofilm-forming strains, MRSA (NCTC 12493), K. pneumoniae (ATCC 43816), E. faecium (NTCC-12697), and P. aeruginosa (ATCC 9027), were used in this assay. Tryptic soy broth (TSB) (for the Gram-positive bacteria) and Luria–Bertani broth (LB) (for the Gram-negative bacteria) were used to culture the bacteria.
(§3) The mass of the biofilm in this assay was detected by the crystal violet staining method. First, 100 μL of 5 × 10^5 CFU/mL bacteria was incubated with 1 μL of different peptide solutions (ranging from 51200 μM to 100 μM) for 24 h at 37 °C with 200 rpm shaking. After the biofilm formation, 100 μL of PBS was used to rinse the biofilm twice. Next, 100 µL of methanol was added to fix the biofilm, and the biofilm was then dried. Thereafter, 100 μL of 0.1% crystal violet was added and left to stain for 15 min, and then the excess crystal violet was further rinsed by PBS. After the plate had air-dried, 30% glacial acetic acid was added to each well of the plate, and the plate was shaken for 15 min before the optical density (OD) value was measured at 595 nm using a Synergy HT plate reader. The MBIC value refers to the minimum concentration at which the biofilm inhibitory rate was more than 90%.
(§4) Different from measuring the MBIC value, to determine the MBEC value, 100 μL of the bacteria was first added to 96-well plates. After the biofilm was formed, the biofilm was rinsed with PBS twice to remove the planktonic cells, and then different concentrations of the drugs were added to the biofilm (the same as the MBIC assay). The mixture was incubated at 37 °C with shaking at 200 rpm. After 24 h of incubation, the mass of the biofilm was measured in the same way as the MBIC value, and the minimum concentration at which the eradication rate was greater than 99.9% was considered to be the MBEC value.

[3] = test system: E. faecium (NTCC12697) biofilm; format: cell-based, Enterococcus faecium; settings: for MBIC: biofilm inhibitory rate more than 90%; for MBEC: eradication rate greater than 99.9%
Procedure: as §2, §3, §4

[4] = test system: P. aeruginosa (ATCC 9027) biofilm; format: cell-based, Pseudomonas aeruginosa; settings: for MBIC: biofilm inhibitory rate more than 90%; for MBEC: eradication rate greater than 99.9%
Procedure: as §2, §3, §4

[5] = test system: human breast cancer cell line MCF-7; test: Anti-proliferative assay (MTT); format: cell-based; settings: MCF-7, MTT, 24 h
Procedure: (§5) The human non-small-cell lung cancer line, H838, the human prostate carcinoma cell line, PC-3, the human glioblastoma astrocytoma, U251MG, the human breast cancer cell line, MCF-7, the human colorectal carcinoma cell line, HCT116, and the human keratinocyte cell line, HaCaT, were used to detect the anti-proliferative effects of the crabrolin and its derivatives in vitro. A total of 8000 cells were seeded in each well of a 96-well plate. After the cells had adhered to the wall, the cells were starved for 4 h. After the starvation, the cells were incubated with different concentrations of the drugs, ranging from 100 µM to 1 nM, for 24 h, with 0.1% Triton X-100 used as a positive control. Next, 10 µL of MTT (3-(4,5-dimethylthiazol-2-yl)-2,5-diphenyltetrazolium bromide) solution (5 mg/mL) was added to each well of the 96-well plate. After 2 h of incubation, 100 μL of DMSO-superseded medium was added to each well to dissolve the formazan crystals. Finally, the absorbance was detected using a Synergy HT plate reader at 570 nm.

[6] = test system: human colorectal carcinoma cell line HCT-116; test: Anti-proliferative assay (MTT); format: cell-based; settings: HCT-116, MTT, 24 h
Procedure: as §5

[7] = test system: human glioblastoma astrocytoma U251MG; test: Anti-proliferative assay (MTT); format: cell-based; settings: 24 h
Procedure: as §5

[8] = test system: human keratinocyte cell line HaCaT; test: Anti-proliferative assay (MTT); format: cell-based; settings: HaCaT (normal keratinocytes), 24 h
Procedure: as §5

[9] = test system: human non-small-cell lung cancer line H838; test: Anti-proliferative assay (MTT); format: cell-based; settings: 24 h
Procedure: as §5

[10] = test system: human prostate carcinoma cell line PC-3; test: Anti-proliferative assay (MTT); format: cell-based; settings: PC3, MTT, 24 h
Procedure: as §5

[11] = test system: Galleria mellonella larvae; test: Toxicity to Galleria mellonella larvae without infection; format: in vivo; settings: highest dose (50 mg/kg)

SMILES	MBC (S. aureus (NCTC 10788)) [µM]	MIC (S. aureus (NCTC 10788)) [µM]	MBC (E. coli (ATCC 8739)) [µM]	MIC (E. coli (ATCC 8739)) [µM]	MBC (MRSA (NCTC 12493)) [µM]	MIC (MRSA (NCTC 12493)) [µM]	MBC [1] [µM]	MIC [1] [µM]	MBC (E. faecium (NTCC 12697)) [µM]	MIC (E. faecium (NTCC 12697)) [µM]	MBIC [2]	MBEC [2]	MBIC [3] [µM]	MBEC [3] [µM]	MBIC [4] [µM]	MBEC [4] [µM]	IC50 [5] [µM]	IC50 [6] [µM]	IC50 [7] [µM]	IC50 [8] [µM]	further results
CC[C@H](C)[C@H](NC(=O)[C@H](CC(C)C)NC(=O)[C@@H]1CCCN1C(=O)[C@H](CC(C)C)NC(=O)[C@@H](N)Cc1ccccc1)C(=O)N[C@@H](CC(C)C)C(=O)N[C@@H](CCCNC(=N)N)C(=O)N[C@@H](CCCCN)C(=O)N[C@H](C(=O)N[C@H](C(=O)N[C@H](C(=O)N[C@@H](C)C(=O)N[C@@H](CC(C)C)C(N)=O)[C@@H](C)O)C(C)C)[C@@H](C)CC [Crabrolin, FLPLILRKIVTAL-NH2] (H-FLPLILRKIVTAL-NH2)	4	2	128	32	8	4	128	64	64	16	>512/>512 µM	>512/>512 µM	32	> 512	128	512	26.5	8.54	20.1	31.2	MIC (MRSA (NCTC 12493); listed as crabrolin): 8 µM; IC50 [9]: 27.7 µM; IC50 [10]: 32.1 µM; Death of healthy larvae [11]: did not result in the death of healthy larvae
CC[C@H](C)[C@H](NC(=O)[C@H](CCCNC(=N)N)NC(=O)[C@@H]1CCCN1C(=O)[C@H](CC(C)C)NC(=O)[C@@H](N)Cc1ccccc1)C(=O)N[C@@H](CC(C)C)C(=O)N[C@@H](CCCNC(=N)N)C(=O)N[C@@H](CCCCN)C(=O)N[C@H](C(=O)N[C@H](C(=O)N[C@@H](CCCNC(=N)N)C(=O)N[C@@H](C)C(=O)N[C@@H](CC(C)C)C(N)=O)C(C)C)[C@@H](C)CC [Crabrolin-TR, FLPRILRKIVRAL-NH2] (H-FLPRILRKIVRAL-NH2)	2	1	4	2	2	2	8	8	8	4	8 µM	128 µM	16	> 512	8	256	3.46	2.81	12.4	20.9	IC50 ([5]; listed as crabrolin-TR): < 10 µM; IC50 ([7]; listed as crabrolin-TR): > 10 µM; IC50 [9]: 4.64 µM; IC50 ([9]; listed as crabrolin-TR): < 10 µM; IC50 [10]: 3.94 µM; IC50 ([10]; listed as crabrolin-TR): < 10 µM; Death of healthy larvae [11]: did not result in the death of healthy larvae
